Results on 29 compounds are retold here after ChEMBL document CHEMBL3045476, “Prediction of antiproliferative activity of some flavone derivatives: QSAR study” (2009).

The test system of the experiment is SK-HEP1. As to the kind of experiment: Antiproliferative activity against Homo sapiens (human) SKHEP1 cells. The experiment is classed as functional. The following applies: SK-HEP1, read-out: pGI50 (converted).

For the compound `COc1ccc(/C(COc2ccc3c(=O)c(-c4ccccc4)coc3c2)=N\O)cc1`, the GI50 is 5.5 µM.

Consider `CO/N=C(/COc1ccc2c(=O)cc(-c3ccccc3)oc2c1)c1ccccc1`, for which the GI50 was 2 µM.

For the compound `C/C(COc1ccc2c(=O)c(-c3ccccc3)coc2c1)=N\O`, the GI50 is 7.29 µM. In the case of `CO/N=C(/COc1c(-c2ccccc2)oc2ccccc2c1=O)c1ccccc1`, the GI50 was 7.11 µM. `C/C(COc1ccc2c(=O)cc(-c3ccccc3)oc2c1)=N\O`: the GI50 was 2.8 µM. The same measure for `C/C(COc1c(-c2ccccc2)oc2ccccc2c1=O)=N\O`: 2.6 µM; for `CO/N=C(/COc1ccc2c(=O)c(-c3ccccc3)coc2c1)c1ccc(F)cc1`: 6.09 µM; for `O=c1c(OC/C(=N/O)c2ccc(F)cc2)c(-c2ccccc2)oc2ccccc12`: 6.9 µM. The same measure for `CO/N=C(/COc1ccc2c(=O)cc(-c3ccccc3)oc2c1)c1ccc(OC)cc1`: 4.79 µM; for `CO/N=C(\C)COc1ccc2c(=O)cc(-c3ccccc3)oc2c1`: 2 µM. Turning to `CO/N=C(/COc1c(-c2ccccc2)oc2ccccc2c1=O)c1ccc(F)cc1`, the GI50 is 13 µM. Turning to `CO/N=C(/COc1ccc2oc(-c3ccccc3)cc(=O)c2c1)c1ccccc1`, the GI50 is 8.2 µM. For the compound `O=c1c(-c2ccccc2)coc2cc(OC/C(=N/O)c3ccccc3)ccc12`, the GI50 was 6.39 µM.

As to `O=c1cc(-c2ccccc2)oc2cc(OC/C(=N/O)c3ccccc3)ccc12`, the GI50 is 2 µM. In the case of `COc1ccc(/C(COc2ccc3c(=O)cc(-c4ccccc4)oc3c2)=N\O)cc1` it was 5.59 µM; in that of `CO/N=C(/COc1ccc2c(=O)c(-c3ccccc3)coc2c1)c1ccccc1`, 7.39 µM; in that of `CO/N=C(/COc1ccc2c(=O)c(-c3ccccc3)coc2c1)c1ccc(OC)cc1`, 5.29 µM. Consider `O=c1cc(-c2ccccc2)oc2cc(OC/C(=N/O)c3ccc(F)cc3)ccc12`, for which the GI50 was 2.3 µM.

As to `CO/N=C(/COc1ccc2oc(-c3ccccc3)cc(=O)c2c1)c1ccc(OC)cc1`, the GI50 is 2 µM.

As for `O=c1cc(-c2ccccc2)oc2ccc(OC/C(=N/O)c3ccc(F)cc3)cc12`, the GI50 is 2.8 µM. With `CO/N=C(/COc1ccc2oc(-c3ccccc3)cc(=O)c2c1)c1ccc(F)cc1`, the GI50 was 7.9 µM.

`CO/N=C(\C)COc1ccc2c(=O)c(-c3ccccc3)coc2c1`: the GI50 is 6.39 µM. In the case of `COc1ccc(/C(COc2c(-c3ccccc3)oc3ccccc3c2=O)=N\O)cc1`, the GI50 was 2.7 µM. The same measure for `CO/N=C(/COc1c(-c2ccccc2)oc2ccccc2c1=O)c1ccc(OC)cc1`: 11 µM. `CO/N=C(\C)COc1c(-c2ccccc2)oc2ccccc2c1=O`: the GI50 is 9.2 µM.

Consider `CO/N=C(/COc1ccc2c(=O)cc(-c3ccccc3)oc2c1)c1ccc(F)cc1`, for which the GI50 is 3.3 µM.

For the compound `O=c1c(-c2ccccc2)coc2cc(OC/C(=N/O)c3ccc(F)cc3)ccc12`, the GI50 is 6.6 µM. In the case of `O=c1c(OC/C(=N/O)c2ccccc2)c(-c2ccccc2)oc2ccccc12`, the GI50 was 7.21 µM. Take `C/C(COc1ccc2oc(-c3ccccc3)cc(=O)c2c1)=N\O`: the GI50 is 1.9 µM.
